This passage reports IC50 results from patent US8962596B2 (Array BioPharma Inc., priority 2010, dated 2015).

Counter-ions that a name gives are not always drawn.

What all share (type): biochemical
One experiment deals with T1, JAK2 (Homo sapiens, UniProt O60674).
T1 construct: purchased Invitrogen Corporation, Carlsbad, Calif; PV4288
Kind of experiment: JAK2 Inhibition Assay (Omnia kinase fluorescence peptide substrate assay). Particulars: averaged IC50 ranges; assay of Example C; 25 μM (Km app) or 1 mM ATP, 5 nM JAK2. In outline:
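5 nM JAK2 phosphorylated 10 μM Omnia Y7 peptide with ATP at 25 μM (Km app) or 1 mM, in 25 mM HEPES pH 7.4, 10 mM MgCl2, 0.01% Triton X-100, 1 mM DTT, 2% DMSO. Fluorescence (360/485 nm) was read every 50 s for 45 min. 10-point 3-fold series from 10 μM; POC versus uninhibited and background controls, 4-parameter logistic IC50.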

The next experiment concerns the target T2, JAK1 (Homo sapiens, UniProt P23458).
T2 construct: purchased Invitrogen Corporation, Carlsbad, Calif; PV4775
Kind of experiment: JAK1 Inhibition Assay (Omnia kinase fluorescence peptide substrate assay). The settings on record: averaged IC50 ranges; assay of Example B; 40 μM (Km app) or 1 mM ATP, 15 nM JAK1.

The target in a further experiment is T3, JAK3 (Homo sapiens, UniProt P52333).
T3 construct: purchased Invitrogen Corporation, Carlsbad, Calif; PV4080
T3 sequence (P52333 1-1124): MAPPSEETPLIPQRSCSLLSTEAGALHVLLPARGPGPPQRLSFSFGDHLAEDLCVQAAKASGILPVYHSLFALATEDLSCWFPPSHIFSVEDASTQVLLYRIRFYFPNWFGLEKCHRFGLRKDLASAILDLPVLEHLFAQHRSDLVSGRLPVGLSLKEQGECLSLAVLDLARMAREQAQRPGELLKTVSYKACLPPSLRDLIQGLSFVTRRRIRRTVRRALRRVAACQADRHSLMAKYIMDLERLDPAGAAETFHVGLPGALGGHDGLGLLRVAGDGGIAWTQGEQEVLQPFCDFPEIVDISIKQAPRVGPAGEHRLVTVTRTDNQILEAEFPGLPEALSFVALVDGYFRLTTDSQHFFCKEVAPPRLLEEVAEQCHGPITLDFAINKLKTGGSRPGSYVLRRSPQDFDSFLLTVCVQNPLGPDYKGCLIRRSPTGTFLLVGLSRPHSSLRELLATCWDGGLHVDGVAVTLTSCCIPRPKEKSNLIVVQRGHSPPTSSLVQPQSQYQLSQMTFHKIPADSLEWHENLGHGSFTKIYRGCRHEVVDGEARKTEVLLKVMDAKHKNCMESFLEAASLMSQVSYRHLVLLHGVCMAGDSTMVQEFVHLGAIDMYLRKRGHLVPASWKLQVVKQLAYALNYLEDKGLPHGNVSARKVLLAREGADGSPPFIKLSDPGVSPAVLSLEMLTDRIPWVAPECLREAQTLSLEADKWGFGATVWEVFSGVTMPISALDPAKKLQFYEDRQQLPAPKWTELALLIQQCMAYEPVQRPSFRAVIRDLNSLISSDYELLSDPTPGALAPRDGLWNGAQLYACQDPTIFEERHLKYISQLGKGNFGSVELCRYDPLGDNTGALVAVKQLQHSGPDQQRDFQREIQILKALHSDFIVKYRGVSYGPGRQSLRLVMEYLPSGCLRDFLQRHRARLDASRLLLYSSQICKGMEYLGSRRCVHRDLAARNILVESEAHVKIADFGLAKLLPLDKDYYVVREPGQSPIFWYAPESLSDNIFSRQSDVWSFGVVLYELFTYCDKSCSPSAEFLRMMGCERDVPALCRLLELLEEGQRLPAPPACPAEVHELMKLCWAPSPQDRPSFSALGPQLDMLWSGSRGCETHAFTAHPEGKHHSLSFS
Kind of experiment: JAK3 Inhibition Assay (Omnia kinase fluorescence peptide substrate assay). The settings on record: averaged IC50 ranges; assay of Example D; 10 μM (Km app) or 1 mM ATP, 2.5 nM JAK3. In outline: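 Kinase at 2.5 nM with 10 µM Omnia Y7 peptide and 10 µM (Km app) or 1 mM ATP in 25 mM HEPES pH 7.4, 10 mM MgCl2, 1 mM DTT, 0.01% Triton X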

Another experiment concerns the target T4, Human Tyk2 kinase domain (Homo sapiens, UniProt P29597).
T4 construct: comprising amino acids 886 to 1187 with 10 additional histidine residues; 10xHis (histidine tag) (C, cleaved yes); made in house
T4 sequence (P29597 886-1187): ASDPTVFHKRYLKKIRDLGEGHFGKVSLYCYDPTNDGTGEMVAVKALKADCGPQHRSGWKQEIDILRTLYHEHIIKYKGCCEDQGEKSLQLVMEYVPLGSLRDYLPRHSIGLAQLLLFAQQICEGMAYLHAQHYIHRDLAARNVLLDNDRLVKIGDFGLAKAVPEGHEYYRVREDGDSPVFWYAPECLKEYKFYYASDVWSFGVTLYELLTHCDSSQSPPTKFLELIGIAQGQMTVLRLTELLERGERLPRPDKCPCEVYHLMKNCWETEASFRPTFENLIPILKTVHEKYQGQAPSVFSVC
The experiment can be described thus: Tyk2 Inhibition Assay (Omnia kinase fluorescence peptide substrate assay). The settings on record: averaged IC50 ranges; assay of Example A; 10 μM (Km app) or 1 mM ATP, 2 nM Tyk2. In outline: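 2 nM His-tag-cleaved kinase domain (aa 886–1187) with 8 μM Omnia Y12 peptide, 10 μM (Km app) or 1 mM ATP, pH 7.4 HEPES/10 mM MgCl2, 2% DMSO. Fluorescence (ex 360/em 485 nm) every 50 s for 45 min; IC50 from 4-parameter fit of POC, top dose 10 μM.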

T2 sequence (P23458 whole entry): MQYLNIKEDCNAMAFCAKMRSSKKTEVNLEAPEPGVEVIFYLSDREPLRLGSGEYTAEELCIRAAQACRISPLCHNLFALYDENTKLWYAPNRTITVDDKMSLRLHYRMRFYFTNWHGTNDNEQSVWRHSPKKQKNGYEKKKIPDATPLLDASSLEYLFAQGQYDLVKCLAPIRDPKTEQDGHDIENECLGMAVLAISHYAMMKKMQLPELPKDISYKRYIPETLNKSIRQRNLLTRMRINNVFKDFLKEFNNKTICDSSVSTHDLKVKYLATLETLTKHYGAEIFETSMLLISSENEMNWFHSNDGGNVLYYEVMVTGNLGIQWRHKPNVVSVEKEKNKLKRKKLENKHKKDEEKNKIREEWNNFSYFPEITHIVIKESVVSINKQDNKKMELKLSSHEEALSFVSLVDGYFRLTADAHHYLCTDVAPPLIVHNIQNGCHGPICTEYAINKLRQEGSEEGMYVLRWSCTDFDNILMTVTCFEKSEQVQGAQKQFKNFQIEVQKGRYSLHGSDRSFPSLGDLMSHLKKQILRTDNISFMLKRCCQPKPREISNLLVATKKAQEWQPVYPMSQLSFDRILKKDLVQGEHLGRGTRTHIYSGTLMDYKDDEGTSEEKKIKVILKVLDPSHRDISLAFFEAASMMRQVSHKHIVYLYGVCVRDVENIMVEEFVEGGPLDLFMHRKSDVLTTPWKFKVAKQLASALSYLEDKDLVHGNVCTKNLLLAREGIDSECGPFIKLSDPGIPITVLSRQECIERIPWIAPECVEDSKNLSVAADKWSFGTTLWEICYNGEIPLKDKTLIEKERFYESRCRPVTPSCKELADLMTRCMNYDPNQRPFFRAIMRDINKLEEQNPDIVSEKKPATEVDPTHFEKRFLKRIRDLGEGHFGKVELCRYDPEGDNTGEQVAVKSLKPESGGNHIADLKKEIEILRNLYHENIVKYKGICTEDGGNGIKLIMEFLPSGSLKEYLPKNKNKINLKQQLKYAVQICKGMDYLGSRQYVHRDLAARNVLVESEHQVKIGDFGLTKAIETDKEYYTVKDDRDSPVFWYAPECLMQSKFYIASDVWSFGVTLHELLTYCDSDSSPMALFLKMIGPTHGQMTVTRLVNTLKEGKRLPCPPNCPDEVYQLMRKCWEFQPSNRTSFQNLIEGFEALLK
T1 sequence (O60674 whole entry): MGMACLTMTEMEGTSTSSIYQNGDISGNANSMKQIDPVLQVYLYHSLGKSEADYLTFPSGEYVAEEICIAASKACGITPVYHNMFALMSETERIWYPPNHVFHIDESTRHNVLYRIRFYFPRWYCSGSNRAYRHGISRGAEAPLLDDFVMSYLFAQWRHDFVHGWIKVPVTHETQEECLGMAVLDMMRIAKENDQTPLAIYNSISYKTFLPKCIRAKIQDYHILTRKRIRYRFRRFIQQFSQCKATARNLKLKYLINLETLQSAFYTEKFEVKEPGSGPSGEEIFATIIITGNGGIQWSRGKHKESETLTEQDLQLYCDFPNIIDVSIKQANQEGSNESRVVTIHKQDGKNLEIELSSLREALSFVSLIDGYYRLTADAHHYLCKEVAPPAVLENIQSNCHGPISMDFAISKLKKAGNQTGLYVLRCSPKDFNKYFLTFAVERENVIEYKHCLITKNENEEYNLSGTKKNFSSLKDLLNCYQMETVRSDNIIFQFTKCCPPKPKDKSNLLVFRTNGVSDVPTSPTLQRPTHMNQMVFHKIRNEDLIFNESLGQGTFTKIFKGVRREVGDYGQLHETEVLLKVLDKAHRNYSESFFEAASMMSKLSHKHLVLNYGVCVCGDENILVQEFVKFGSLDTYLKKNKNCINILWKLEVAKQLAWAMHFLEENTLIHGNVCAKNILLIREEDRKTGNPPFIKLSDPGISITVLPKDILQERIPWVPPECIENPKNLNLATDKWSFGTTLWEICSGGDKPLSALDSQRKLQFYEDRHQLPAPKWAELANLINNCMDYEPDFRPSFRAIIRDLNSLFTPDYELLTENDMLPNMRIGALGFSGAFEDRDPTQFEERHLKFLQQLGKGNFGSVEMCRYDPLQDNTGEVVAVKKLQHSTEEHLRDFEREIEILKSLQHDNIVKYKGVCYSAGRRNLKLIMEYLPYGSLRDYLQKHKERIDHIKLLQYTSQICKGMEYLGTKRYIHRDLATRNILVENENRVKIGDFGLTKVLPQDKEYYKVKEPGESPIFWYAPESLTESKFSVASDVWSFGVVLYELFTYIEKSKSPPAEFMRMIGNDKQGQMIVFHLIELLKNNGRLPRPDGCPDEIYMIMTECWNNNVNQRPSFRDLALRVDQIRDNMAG

For `CS(=O)(=O)CCn1cc(-c2cc3nccn3c(-c3ccn(C4(CC#N)CN(CC(F)(F)F)C4)n3)n2)cn1` [Example 143, 2-(3-(3-(7-(1-(2-(methylsulfonyl)ethyl)-1H-pyrazol-4-yl)imidazo[1,2-c]pyrimidin-5-yl)-1H-pyrazol-1-yl)-1-(2,2,2-trifluoroethyl)azetidin-3-yl)acetonitrile], the IC50 (usually the concentration needed to halve the response being measured) at JAK2 was 10 to 100 nM; against JAK1 it was 100 to 1000 nM; against JAK3, more than 1000 nM; at Human Tyk2 kinase domain, less than 10 nM.
Turning to `Cn1cc(-c2cc3nccn3c(-c3ccn(C4(CC#N)CNC4)n3)n2)cn1` [Example 130, 2-(3-(3-(7-(1-Methyl-1H-pyrazol-4-yl)imidazo[1,2-c]pyrimidin-5-yl)-1H-pyrazol-1-yl)azetidin-3-yl)acetonitrile hydrochloride], the IC50 is 100 to 1000 nM against JAK2, more than 1000 nM against JAK1, more than 1000 nM against JAK3 and 100 to 1000 nM at Human Tyk2 kinase domain.
Regarding `Cn1cc(-c2cc3nccn3c(-c3cnn(C(CC#N)c4ccc(Cl)cc4)c3)n2)cn1` (centres unmarked) [Example 14, 3-(4-chlorophenyl)-3-(4-(7-(1-methyl-1H-pyrazol-4-yl)imidazo[1,2-c]pyrimidin-5-yl)-1H-pyrazol-1-yl)propanenitrile], the IC50 is 10 to 100 nM at JAK2, 10 to 100 nM against JAK1, 100 to 1000 nM at JAK3 and 10 to 100 nM at Human Tyk2 kinase domain.
As to `Cn1cc(-c2cc3nccn3c(-c3ccn(C(CC#N)C4CC4)c3)n2)cn1` (centres unmarked) [Example 126, 3-Cyclopropyl-3-(3-(7-(1-methyl-1H-pyrazol-4-yl)imidazo[1,2-c]pyrimidin-5-yl)-1H-pyrrol-1-yl)propanenitrile], the IC50 on JAK2 is 10 to 100 nM; against JAK1 it was 10 to 100 nM; against JAK3, 100 to 1000 nM; on Human Tyk2 kinase domain it was less than 10 nM.
For `N#CCC1(n2cc(-c3nc(-c4cnn(C5COC5)c4)cc4nccn34)cn2)CN(CC(F)F)C1` [Example 156, 2-(1-(2,2-difluoroethyl)-3-(4-(7-(1-(oxetan-3-yl)-1H-pyrazol-4-yl)imidazo[1,2-c]pyrimidin-5-yl)-1H-pyrazol-1-yl)azetidin-3-yl)acetonitrile], the IC50 is 10 to 100 nM against JAK2, 100 to 1000 nM against JAK1, more than 1000 nM against JAK3 and less than 10 nM against Human Tyk2 kinase domain.
For `Cn1cc(-c2cc3nccn3c(-c3ccn(C4(CC#N)CN(CC(F)(F)F)C4)n3)n2)cn1` [Example 131, 2-(3-(3-(7-(1-Methyl-1H-pyrazol-4-yl)imidazo[1,2-c]pyrimidin-5-yl)-1H-pyrazol-1-yl)-1-(2,2,2-trifluoroethyl)azetidin-3-yl)acetonitrile], in that order: 100 to 1000 nM, more than 1000 nM, more than 1000 nM and 10 to 100 nM.
On to `Cc1nn(C2(CC#N)CN(CC(F)(F)F)C2)cc1-c1nc(-c2cnn(C)c2)cc2nccn12` [Example 108, 2-(3-(3-methyl-4-(7-(1-methyl-1H-pyrazol-4-yl)imidazo[1,2-c]pyrimidin-5-yl)-1H-pyrazol-1-yl)-1-(2,2,2-trifluoroethyl)azetidin-3-yl)acetonitrile], for which the IC50 against JAK2 is 100 to 1000 nM; against JAK1 it was more than 1000 nM; against JAK3 it was more than 1000 nM; against Human Tyk2 kinase domain it was 10 to 100 nM.
Turning to `Cn1cc(-c2cc3nccn3c(-c3cnn(C(CC#N)c4cccnc4)c3)n2)cn1` (centres unmarked) [Example 7, 3-(4-(7-(1-methyl-1H-pyrazol-4-yl)imidazo[1,2-c]pyrimidin-5-yl)-1H-pyrazol-1-yl)-3-(pyridin-3-yl)propanenitrile], the IC50 on JAK2 was 10 to 100 nM; against JAK1 it was 10 to 100 nM; against JAK3 it was 100 to 1000 nM; against Human Tyk2 kinase domain, less than 10 nM.
For `Cn1cc(-c2cc3nccn3c(-c3cnn(C(CC#N)C4CCC4)c3)n2)cn1` (centres unmarked) [Example 20, 3-cyclobutyl-3-(4-(7-(1-methyl-1H-pyrazol-4-yl)imidazo[1,2-c]pyrimidin-5-yl)-1H-pyrazol-1-yl)propanenitrile], the IC50 against JAK2 was 10 to 100 nM; on JAK1 it was 10 to 100 nM; at JAK3 it was more than 1000 nM; at Human Tyk2 kinase domain it was less than 10 nM.
For the molecule `Cn1cc(-c2cc3nccn3c(-c3cnn(C(CC#N)CC#N)c3)n2)cn1` [Example 1, 3-(4-(7-(1-methyl-1H-pyrazol-4-yl)imidazo[1,2-c]pyrimidin-5-yl)-1H-pyrazol-1-yl)pentanedinitrile], the IC50 is 10 to 100 nM against JAK2, 10 to 100 nM against JAK1, 100 to 1000 nM against JAK3 and less than 10 nM at Human Tyk2 kinase domain.
Turning to `Cn1cc(-c2cc3nccn3c(-c3cnn(C(CC#N)c4cncc(Br)c4)c3)n2)cn1` (centres unmarked) [Example 10, 3-(5-bromopyridin-3-yl)-3-(4-(7-(1-methyl-1H-pyrazol-4-yl)imidazo[1,2-c]pyrimidin-5-yl)-1H-pyrazol-1-yl)propanenitrile], the IC50 against JAK2 was 10 to 100 nM; on JAK1, 10 to 100 nM; at JAK3, 100 to 1000 nM; at Human Tyk2 kinase domain it was less than 10 nM.
On to `Cn1cc(-c2cc3nccn3c(-c3cnn(C4(CC#N)CN(S(=O)(=O)C(F)(F)F)C4)c3)n2)cn1` [Example 96, 2-(3-(4-(7-(1-Methyl-1H-pyrazol-4-yl)imidazo[1,2-c]pyrimidin-5-yl)-1H-pyrazol-1-yl)-1-(trifluoromethylsulfonyl)azetidin-3-yl)acetonitrile], for which the IC50 on JAK2 was less than 10 nM; against JAK1, less than 10 nM; against JAK3, 100 to 1000 nM; against Human Tyk2 kinase domain it was less than 10 nM.
For the molecule `Cn1cc(-c2cc3nccn3c(-c3cnn(C4(CC#N)CN(S(=O)(=O)C5CC5)C4)c3)n2)cn1` [Example 95, 2-(1-(cyclopropylsulfonyl)-3-(4-(7-(1-methyl-1H-pyrazol-4-yl)imidazo[1,2-c]pyrimidin-5-yl)-1H-pyrazol-1-yl)azetidin-3-yl)acetonitrile], the IC50 is 10 to 100 nM against JAK2, 10 to 100 nM at JAK1, more than 1000 nM on JAK3 and less than 10 nM against Human Tyk2 kinase domain.
Regarding `Cn1cc(-c2cc3ncc(F)n3c(-c3cnn(C4(CC#N)CN(S(=O)(=O)C(F)(F)F)C4)c3)n2)cn1` [Example 154, 2-(3-(4-(3-fluoro-7-(1-methyl-1H-pyrazol-4-yl)imidazo[1,2-c]pyrimidin-5-yl)-1H-pyrazol-1-Y1)-1-((trifluoromethyl)sulfonyl)azetidin-3-yl)acetonitrile], the IC50 is less than 10 nM against JAK2, 10 to 100 nM on JAK1, 100 to 1000 nM at JAK3 and less than 10 nM against Human Tyk2 kinase domain.
